According to paper PMC11054271, “ABCG2 Transports the Flukicide Nitroxynil and Affects Its Biodistribution and Secretion into Milk” (Pharmaceutics, 2024):
Like-named read-outs stand apart in the source and are kept apart here.

Legend:
[1] = tested on: murine Abcg2; test: Milk secretion experiment in lactating wild-type and Abcg2−/− female mice; format: in vivo; details: FVB/N, mouse, intravenous, lactating Abcg2−/− female mice, 30 min after 10 mg/kg i.v.
Procedure: (§1) All in vivo experiments were carried out using wild-type and Abcg2^−/− mice aged between 8 and 17 weeks, all of >99% FVB/N genetic background, generated and gently supplied by A. H. Schinkel (Netherlands Cancer Institute). Mice were housed and handled complying with institutional and ARRIVE guidelines and European legislation (EU Directive 2010/63/EU for animal experiments). Additionally, experimental procedures were approved by the Animal Care and Use Committee of the University of León and the Junta de Castilla y León (ULE_011_2019).
(§2) Pups of approximately 10 days old were separated from their mothers (wild-type (n = 10) and Abcg2^−/− (n = 11) female mice) 3 h before beginning the experiment. Milk secretion experiments were performed as previously described. Nitroxynil solution was prepared by diluting Distomicide® (250 mg/mL) commercial solution in saline and administered at a dose of 150 μL/30 g bw into the tail vein under anesthesia with isoflurane. An amount of 200 μL oxytocin (1 IU/mL) was administrated subcutaneously 10 min before milk collection. Blood and milk samples were collected from retro-orbital sinus and mammary gland, respectively, 30 min after nitroxynil administration.
(§3) Plasma, milk and tissue samples from each animal were individually processed and analyzed without pooling, while samples from transport assays were not processed. Tissue samples were homogenized in a mixture of 50% water/50% methanol HCl 0.5% (v/v); 1 mL solution per 0.1 g tissue. The entire amount of collected milk (74.7–295.1 mg) and 100 μL plasma and tissue homogenates were processed. To each sample, 10 μL of a nitrofurantoin solution (10 μg/mL for plasma and milk and 2 μg/mL for homogenized tissues) was added as an internal standard and 150 μL acetonitrile was used to precipitate the proteins. The mixture was vortexed horizontally for 15 min and centrifugated at 10,000× g for 5 min at 4 °C. Supernatant was transferred to a new tube and dried at 40 °C under N2 stream. Samples were reconstituted in 100 μL of mobile phase and 50 μL was injected into HPLC. Standards were subjected to the same procedures as samples.
(§4) Waters 2695 separation module and Waters 2998 UV photodiode array detector set at 270 nm were used for samples analysis. Chromatographic conditions for nitroxynil detection were based on previously described methods, with minor modifications. Chromatographic separation was achieved on a reverse-phase column (Synergy 4 μm Hydro–RP 80 Å, 250 × 4.60 mm; Phenomenex®, Torrance, CA, USA) using an isocratic binary mobile phase consisting of 25 mM potassium phosphate monobasic (KH2PO4), pH 4: acetonitrile (70:30 for culture samples and 80:20 for animal samples) at a flow rate of 1 mL/min. Autosampler and column temperature were 4 °C and 40 °C, respectively. Limit of detection (LOD) and quantification (LOQ) were calculated as previously described. For cell culture samples, LOD and LOQ were 0.003 μg/mL and 0.007 μg/mL, respectively. For in vivo samples, LOD was in the range of 0.01–0.07 μg/mL and LOQ in the range of 0.03–0.15 μg/mL.

[2] = tested on: T1, murine Abcg2; test: as above; format: in vivo; details: FVB/N, mouse, intravenous, lactating wild-type female mice, 30 min after 10 mg/kg i.v.
T1 construct: from tissue; host or cells: whole animal: wild-type vs Abcg2-/- mice, >99% FVB/N background
Procedure: as §1, §2, §3, §4

[3] = target: T2, human ABCG2 (Homo sapiens, UniProt Q9UNQ0); test: Transepithelial transport assay in MDCK-II cells transduced with human ABCG2; format: in vitro ADME; details: MDCK-II hABCG2, nitroxynil 10 µM, no Ko143, read-out: Relative efflux transport ratio (BA/AB)
T2 construct: expressed in transfected cells; host or cells: MDCK-II (canine kidney) subclone, provided by A. H. Schinkel (Netherlands Cancer Institute)
T2 sequence (Q9UNQ0 1-655): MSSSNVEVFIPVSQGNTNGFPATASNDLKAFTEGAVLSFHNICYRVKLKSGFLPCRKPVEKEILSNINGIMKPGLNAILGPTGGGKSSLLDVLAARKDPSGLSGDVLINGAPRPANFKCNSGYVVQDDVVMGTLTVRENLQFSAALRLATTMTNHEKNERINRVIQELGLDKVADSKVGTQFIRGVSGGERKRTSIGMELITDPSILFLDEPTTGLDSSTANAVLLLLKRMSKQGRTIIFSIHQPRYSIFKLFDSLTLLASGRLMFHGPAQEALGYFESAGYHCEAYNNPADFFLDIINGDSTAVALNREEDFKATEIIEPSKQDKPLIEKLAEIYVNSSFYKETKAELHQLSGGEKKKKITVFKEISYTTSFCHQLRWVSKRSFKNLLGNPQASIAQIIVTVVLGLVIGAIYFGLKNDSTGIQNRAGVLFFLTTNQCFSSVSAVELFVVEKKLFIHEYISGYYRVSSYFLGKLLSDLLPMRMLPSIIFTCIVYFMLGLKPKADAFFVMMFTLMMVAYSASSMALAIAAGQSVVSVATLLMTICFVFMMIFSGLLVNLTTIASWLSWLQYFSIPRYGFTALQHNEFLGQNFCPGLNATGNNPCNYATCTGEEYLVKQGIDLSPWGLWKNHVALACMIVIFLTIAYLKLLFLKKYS
Procedure: Parental Madin–Darby canine kidney epithelial cells (MDCK–II) and their subclones transduced with murine (mAbcg2) and human (hABCG2) variants of ABCG2 were kindly provided by Dr. A. H. Schinkel (Netherlands Cancer Institute). Transduced MDCK–II cells with the ovine (oABCG2) and bovine (bABCG2) variants were previously generated by our group. Cells were cultured as described elsewhere.
Transepithelial transport assays were carried out as previously described with minor variations, using Hanks’ balanced salt solution (Sigma-Aldrich) supplemented with HEPES (25 mM), with or without Ko143 (1 μM), and containing or not nitroxynil 10 μM. […] At the end of the experiment, confluence of the monolayer was measured with the previously described Lucifer Yellow permeability test, with minor modifications. The appearance of nitroxynil in the opposite side of the well was measured by HPLC as later described. Active transport was expressed as relative efflux transport ratio (apically directed transport percentage divided by the basolaterally directed translocation percentage) at 4 h and referred to the initial concentration. […]
Waters 2695 separation module and Waters 2998 UV photodiode array detector set at 270 nm were used for samples analysis. […] Limit of detection (LOD) and quantification (LOQ) were calculated as previously described. […]

[4] = milk and plasma, read-out: Milk-to-plasma ratio
[5] = milk, read-out: Milk concentration
[6] = plasma, read-out: Plasma concentration

- Kp at 30 min [1, 4]: 0.1 ± 0.03
- concentration at 30 min [1, 5]: 8100 ± 1000 ng/mL
- concentration at 30 min [1, 6]: 62800 ± 13900 ng/mL
- Kp at 30 min [2, 4]: 0.3 ± 0.1
- concentration at 30 min [2, 5]: 15700 ± 6300 ng/mL
- concentration at 30 min [2, 6]: 58800 ± 11200 ng/mL
- efflux ratio at 4 h, 10 µM [3]: 8.76 ± 0.5
Structure (SMILES): N#Cc1cc(I)c(O)c([N+](=O)[O-])c1 [nitroxynil]
